Assay [1] deals with CHO-Zellen. The assay can be described thus: t-PA production in transformed CHO cells, medium with 7.5% FKS, supernatant, direct chromogenic assay (DCA). In kind it is cell-based, chinesische Hamster. Particulars: for activation at 1 µM: read-out: % Steigerung der t-PA-Synthese. An excerpt: (§1) Der Vektor für die t-PA-Produktion wurde in einem Subklon, CHO-K1-DUX B11, integriert (Urlaub et al., Proceedings of the National Academy of Science, USA, 77: 4216-4220, 1980). Diese Zell-Linie, eine Dihydrofolat Reduktase negative Mutante (DHFR-), ist für eine DHFR-abhängige Selektion der transfizierten Zellklone geeignet. Der Vektor für die humane c-DNA kann ein bekannter Plasmid-Vektor pBR-322 oder deren Abkömmling von Escherichia coli sein. Die Promotorregion für das in Frage kommende Gen und für das DHFR-Gen stammt aus SV 40 und die Terminationsregion für beide Gene von einem Hepatitis B-Oberflächenantigen. In den Beispielen wurden CHO-K1-DUX B11-Zellen, die durch die Plasmide pETPER oder pEPEFR transformiert sind, verwendet (siehe EP-A 0117059).
(§2) Die Zellkulturen werden bei 37°C in einem Hereaus-Brutschrank inkubiert und mit einem Kohlendioxid-Luftgemisch von 7,5% CO₂ in einer relativen Luftfeuchtigkeit von 100% belüftet. Je nach Verfahrensansatz werden unterschiedliche Kulturgefäße benutzt: Spinnergefäße für 100-1000 ml Medium, Roux-Schalen (Nunc) 175 cm² (70-100 ml Medium), 75 cm² (30-50 ml Medium), 25 cm² (7-10 ml Medium) und Mehrfachkulturschalen von Costar mit 2 cm² für 1 ml Kulturen. Für die Stammhaltung werden die Zellen in einer Dichte von 0,2-0,3 x 10⁶ Zellen/ml eingesetzt und alle 2-3 Tage subkloniert.
(§3) Die Protein-Produktion stimulierenden Substanzen können zu den verschiedenen Zeitpunkten jeweils in einer 1:100 Verdünnung zugegeben werden, d.h. sie wurden zuerst in Medium gelöst oder, wenn sie schwerlöslich sind, erst in Äthylalkohol gelöst und danach in Medium zugesetzt und dann das diese Substanz enthaltende Medium dem zellenthaltenden Medium im Verhältnis 1:100 v/v zugegeben.
(§4) In den folgenden Beispielen wurden, um die Stimulierung der t-PA-Synthese hervorzurufen, Zellen einer exponentiell wachsenden Kultur entnommen und in Plastikröhrchen (Falcon) 10 Min. bei 1000 x g in einer Beckmann T 3-6 Zentrifuge abzentrifugiert. Nach Dekantieren des Überstandes wurde das Zellpellet mit frischem Medium resuspendiert.
(§5) Für die Produktion von t-PA in serumhaltigem Medium wurde als frisches Medium F12/DMEM + 7,5% FKS + Gentamycin verwendet. Die resultierende Suspension kann in 2 cm² 24 Wells-Platten bei einer Zelldichte von 0,2-0,3 x 10⁶ Zellen/ml angesetzt werden.
(§6) Aliquots von Zellüberständen und Zellextrakten wurden zu verschiedenen Zeitpunkten abgenommen bzw. hergestellt. Die Messung der Proben erfolgte entweder sofort oder nach Aufbewahrung bei -20°C mit folgenden Methoden:
Von dem synthetischen Peptidsubstrat S-2288 (D-H-Ile-Pro-Arg-p-Nitroanilin) der Firma Kabi Diagnostica wird durch das t-PA p-Nitroanilin als Reaktionsprodukt gebildet. Die Aktivität von t-PA ist zur Bildung von p-Nitroanilin proportional, die bei […], 37°C, gemessen wird.
Die spektrophotometrische Bestimmung der Enzymkinetik wurde mit einem ACP-5010-Analysengerät der Firma Eppendorf automatisch durchgeführt.
Die Aktivität des Enzyms wurde anhand dieses vorgegebenen Standards berechnet. Eine t-PA-Standardreihe von 1-15 µg/ml wurde mit einem Laborstandard hergestellt, der zu 72% aus 1-kettigem Material besteht.
Die Substratlösung (100 mM Tris/106 mM NaCl) wurde in einer Konzentration von 50 mM eingesetzt.

In assay [2] the test system is CHO-Zellen. The assay can be described thus: t-PA production in transformed CHO cells, medium and determination method not stated. It counts as cell-based, chinesische Hamster.
Description: as §1, §2, §3, §4
Aliquots von Zellüberständen und Zellextrakten wurden zu verschiedenen Zeitpunkten abgenommen bzw. hergestellt. Die Messung der Proben erfolgte entweder sofort oder nach Aufbewahrung bei -20°C mit folgenden Methoden: […]

Assay [3] relates to CHO-Zellen. In words: Cell growth / cell division of transformed CHO cells. It counts as cell-based, chinesische Hamster. On the procedure:
as §2, §5
(§7) Für die Produktion von t-PA in serumfreiem Medium wurden die Zellen zuvor 3-4 Tage in einem Medium von 1-2% FKS adaptiert, wieder abzentrifugiert und das Zellpellet in serumfreiem Medium resuspendiert und anschließend in 2 cm² 24 Wells-Platten in einer Zelldichte von 0,4-0,5 x 10⁶ Zellen/ml überführt.

The test system of assay [4] is CHO-Zellen. The assay can be described thus: t-PA production in transformed CHO cells, serum-free medium, ELISA. In kind it is cell-based, chinesische Hamster. Particulars: CHO, Elisa, 1 ml supernatant vs control (0%), read-out: % Steigerung der t-PA-Synthese.
Description: as §1
Als serumfreies Medium stehen verschiedene bekannte Produkte zur Verfügung (siehe z.B. BMFT-Statusseminar 12, 13. November 1985, Bundesministerium für Forschung und Technologie, 5300 Bonn 2, Seite 111-120). Im folgenden Beispiel wird ein nachseziertes DMEM/Ham's F 12 Medium (1:1) (Gibco) als serumfreies Medium verwendet. Als Zusatz wird fötales Kälberserum (FKS) in einer Konzentration von 7,5% oder 1-2% verwendet.
as §2, §3
In den folgenden Beispielen wurden, um die Stimulierung der t-PA-Synthese hervorzurufen, Zellen einer exponentiell wachsenden Kultur entnommen und in Plastikröhrchen (Falcon) 10 Min. bei 1000 x g in einer Beckmann T 3-6 Zentrifuge abzentrifugiert. Nach Dekantieren des Überstandes wurde das Zellpellet mit frischem Medium resuspendiert. […]
Mit Hilfe eines ELISA (Enzyme-linked-immuno-sorbent-assay) wurden die t-PA-Proben des Überstandes und des Zellextraktes quantitativ bestimmt. […]

The test system of assay [5] is CHO-Zellen. In words: t-PA production in transformed CHO cells, serum-free medium (DCA or determination method not given). In kind it is cell-based, chinesische Hamster. Particulars: serum-free medium (Abb. 18).
Description: Diese Zell-Linie, eine Dihydrofolat Reduktase negative Mutante (DHFR-), ist für eine DHFR-abhängige Selektion der transfizierten Zellklone geeignet. […] Die Promotorregion für das in Frage kommende Gen und für das DHFR-Gen stammt aus SV 40 und die Terminationsregion für beide Gene von einem Hepatitis B-Oberflächenantigen.
Im folgenden Beispiel wird ein nachseziertes DMEM/Ham's F 12 Medium (1:1) (Gibco) als serumfreies Medium verwendet. Als Zusatz wird fötales Kälberserum (FKS) in einer Konzentration von 7,5% oder 1-2% verwendet.
as §2, §3, §4, §7, §6
Die Aktivität des Enzyms wurde anhand dieses vorgegebenen Standards berechnet.

In another assay the test system is Bowes-Melanoma-Zellen. Particulars: Kooistra et al.; cited from earlier work.
Assay [6] deals with CHO-Zellen. The assay can be described thus: Extracellular protein content and [3H]-leucine incorporation in CHO cells, serum-free medium. In kind it is cell-based, chinesische Hamster.

For `C[C@@]1(CO)[C@H](O)CC[C@@]2(C)[C@H]1CC[C@H]1C[C@@H]3C[C@@]12CC[C@]3(O)CO` [Aphidicolin], the activation at 1 µM in the assay with CHO-Zellen [1] (CHO, 24 h) amounted to 40.2%; in the assay with CHO-Zellen [1] (CHO, 48 h), 59.9%; in the assay on CHO-Zellen [1] (CHO, 72 h) it was 32.8%; in the assay with CHO-Zellen [1] (CHO, 96 h), 14.7%; in the assay with CHO-Zellen [4] (Table 13, 1 µM, 144 h after medium change), 51.3%; in the assay with CHO-Zellen [4] (Tables 13/14, 1 µM, 96 h after medium change), 36.7%. Besides, the activation at 1 µM in the assay on CHO-Zellen [4] (Tables 13/14, 1 µM, 120 h after medium change) turned out to be 42%. Moreover, in the assay with CHO-Zellen [2] (after 24 h, continued incubation with the substance), the t-PA-Ausbeute gesteigert was 44,9 ± 13,9%. In addition, in the assay with CHO-Zellen [2] (during the 24 h incubation with the substance), the “intrazelluläre t-PA-Konzentration erhöht” value was “ca. 30%”. In the assay with CHO-Zellen [3] (CHO, 1 µM, after 24 h treatment, read-out: Hemmung des Zellwachstums), the inhibition at 1 µM was in the range of 5 to 10%. Moreover, in the assay on CHO-Zellen [5], the “Maximum des Effekts nach Mediumwechsel” value came to 48 h.

For `CCCC(=O)Nc1ncnc2c1ncn2[C@@H]1O[C@@H]2COP(=O)(O)O[C@H]2[C@H]1OC(=O)CCC` [Dibutyryl c-AMP], the “Einfluß auf die Synthese von t-PA” value with Bowes-Melanoma-Zellen is reported as “keinen Einfluß”.

With `CCC(=O)O` [Propionsäure], in the assay on CHO-Zellen [1] (CHO, read-out: für die t-PA-Stimulierung notwendige Konzentrationen), the minimal effective concentration is 5000 to 10000 µM. For the same compound, in the assay with CHO-Zellen [1] (Table 3, mean ± SE, n = 3-24, production runs of 3 to 4 days, acids added day 0 to 3, 1 ml supernatant vs control (0%), 7,5% FKS), the “% Steigerung der t-PA-Synthese Durchschnitt” value is reported as 28,0 ± 2,5%. The “% Steigerung der t-PA-Synthese Maximum” value in the assay on CHO-Zellen [1] (Table 3, single sample, 1 ml supernatant vs control (0%), 7,5% FKS, its concentration, addition and sampling day in brackets in Tables 3/3A) was 45,5%. Also, in the assay with CHO-Zellen [1] (Table 3, stimulation of t-PA synthesis, medium with 7,5% FKS, bracketed value = concentration of the single (maximum) sample), the “optimaler Dosisbereich” value is reported as 5-10 mM (10 mM). Besides, the “Steigerung der t-PA-Produktion” value was 28,7 ± 9,3% in the assay on CHO-Zellen [1] (Table 4, Applikationstag 0, after 48 h growth, 7,5% FKS, 1 mM or 5 mM, 1 ml supernatant vs control (0%), mean ± SE); 24,4 ± 4,1% in the assay with CHO-Zellen [1] (Table 4, Applikationstag 1, after 48 h growth, 7,5% FKS, 1 mM or 5 mM, 1 ml supernatant vs control (0%), mean ± SE); 31,8% in the assay with CHO-Zellen [1] (day 4, medium with 7,5% FKS (Abb. 7)). In the assay on CHO-Zellen [1] (difference to Buttersäure), the “prozentuale Steigerung niedriger als Buttersäure” value is reported as “ca. 14%”. For the same compound, the “Hemmung des Zellwachstums” value with CHO-Zellen [3] (compared with Buttersäure) is “in geringerem Maße”. Further, in the assay with CHO-Zellen [6], the “Einbau von [³H]-Leucin” value is “nur geringfügig gesteigert”. For the same compound, in the assay on CHO-Zellen [6], the “extrazellulärer Proteingehalt gegenüber der Kontrolle” value is on record as “nur gering erhöht”.

The values above are taken from EP0315782A2, “Method for the production of proteins” (priority 1987, dated 1989).
